# Laboratory results: ChEMBL document CHEMBL6087420, “Synthesis and pharmacodynamic evaluation of 2-aminoindole derivatives against influenza A virus in vitro/vivo” (Eur J Med Chem, 2025)
# Activity calls are given as the source filed them. No cut-off for these calls is given here.
# Tests used:
# Influenza A virus [1] = test: Anti-influenza activity against influenza A virus H1NI (A/Weiss/43) infected in dog MDCK cells assessed as virus inhibition rate at 100 uM incubated for 72 hrs by MTT assay; type: functional, organism-based
# Influenza A virus [2] = test: Anti-influenza activity against influenza A virus H1NI (A/Weiss/43) infected in dog MDCK cells assessed as virus inhibition rate at 0.625 uM incubated for 72 hrs by MTT assay; type: functional, organism-based
# [3] = Cytotoxicity against dog MDCK cells after 72 hrs incubation by MTT assay; type: toxicity, cell-based, Canis lupus familiaris
# Influenza A virus [4] = test: Inhibition of influenza A virus infection induced apoptosis in MDCK cells infected with influenza virus assessed as early apoptotic cells at 50 uM incubated for 36 hrs by AnnexinV-FITC/PI staining based flow cytometry (reference value: 18.2%); type: functional; design: scale not given: the % may be the effect or the level left
# Influenza A virus [5] = test: Inhibition of influenza A virus infection induced apoptosis in MDCK cells infected with influenza virus assessed as necrotic cells at 50 uM incubated for 36 hrs by AnnexinV-FITC/PI staining based flow cytometry (reference value: 1.79%); type: functional; design: scale not given: the % may be the effect or the level left
# Influenza A virus [6] = test: Anti-influenza activity against influenza A virus H1NI (A/Weiss/43) infected in dog MDCK cells assessed as virus inhibition rate incubated for 72 hrs by MTT assay; type: functional, organism-based
# Influenza A virus [7] = test: Inhibition of influenza A virus infection induced apoptosis in MDCK cells infected with influenza virus assessed as late apoptotic cells at 50 uM incubated for 36 hrs by AnnexinV-FITC/PI staining based flow cytometry (reference value: 13.2%); type: functional; design: scale not given: the % may be the effect or the level left
# [8] = Selectivity index, ratio of CC50 for dog MDCK cells to EC50 for antiviral activity against Influenza A virus H1N1 (A/Weiss/43) infected in MDCK cells; type: toxicity, cell-based
# Influenza A virus [9] = test: Anti-influenza activity against influenza A virus H1NI (A/Virginia/ATCC2/2009) infected in dog MDCK cells incubated for 72 hrs by MTT assay; type: functional, organism-based
# Influenza A virus [10] = test: Inhibition of influenza A virus infection induced apoptosis in MDCK cells infected with influenza virus assessed as viable cells at 50 uM incubated for 36 hrs by AnnexinV-FITC/PI staining based flow cytometry (reference value: 66.9%); type: functional
# [11] = Selectivity index, ratio of CC50 for dog MDCK cells to EC50 for antiviral activity against Influenza A virus H1NI (A/Virginia/ATCC2/2009) infected in MDCK cells; type: toxicity, cell-based; conditions: read-out: Selectivity Index
# [12] = Selectivity index, ratio of CC50 for dog MDCK cells to EC50 for antiviral activity against Influenza A virus […] H3N2 (A/California/2014) infected in MDCK cells; type: toxicity, cell-based; conditions: read-out: Selectivity Index
# Influenza A virus [13] = test: Anti-influenza activity against influenza A virus H3N2 (A/California/2014) infected in dog MDCK cells incubated for 72 hrs by MTT assay; type: functional, organism-based
Compound,Activity (Influenza A virus [1]),Virus inhibition rate at 0.625 uM (Influenza A virus [2]),CC50 at 72 h [3] [µM],other results
Cc1ccc(S(=O)(=O)n2c(NS(C)(=O)=O)c(-c3ccccc3)c3c(C)cc(C)cc32)cc1,inactive,Not_active,357,–
Cc1ccc(S(=O)(=O)n2c(NS(C)(=O)=O)c(-c3ccccc3F)c3ccccc32)cc1,inactive,Not_active,< 6.25,–
Cc1ccc(S(=O)(=O)n2c(NS(C)(=O)=O)c(-c3ccc(Cl)cc3)c3ccccc32)cc1,inactive,Not_active,14.8,–
Cc1ccc(S(=O)(=O)n2c(NS(C)(=O)=O)c(-c3cccs3)c3ccccc32)cc1,inactive,Not_active,53.6,–
Cc1ccc(S(=O)(=O)n2c(NS(C)(=O)=O)c(-c3ccccc3)c3cc(F)ccc32)cc1,inactive,Not_active,24.4,–
Cc1ccc(S(=O)(=O)n2c(NS(C)(=O)=O)c(-c3ccccc3)c3ccccc32)cc1,inactive,Not_active,59,–
Cc1ccc(S(=O)(=O)Nc2c(-c3ccccc3)c3ccccc3n2S(=O)(=O)c2ccc(C)cc2)cc1,inactive,Not_active,414,–
Cc1ccc(S(=O)(=O)n2c(NS(C)(=O)=O)c(-c3ccccc3C)c3ccccc32)cc1,inactive,Not_active,43,–
Cc1ccc(S(=O)(=O)n2c(NS(C)(=O)=O)c(-c3cccc(F)c3)c3ccccc32)cc1,inactive,Not_active,55,–
CCOC(=O)C1=C[C@@H](OC(CC)CC)[C@H](NC(C)=O)[C@@H](N)C1 [OSELTAMIVIR],–,–,> 800,"Activity (Influenza A virus [4]): 3.85%; Activity (Influenza A virus [5]): 2.11%; EC50 (Influenza A virus [6]): 7.1 µM; Activity (Influenza A virus [7]): 2.33%; selectivity ratio ([8]; read-out: Selectivity Index): > 107; EC50 (Influenza A virus [9]; Influenza A virus, H1NI (A/Virginia/ATCC2/2009), MDCK, 72 h): 11.7 µM; Activity (Influenza A virus [10]): 91.7%; selectivity ratio [11]: > 68.6; selectivity ratio [12]: > 30.4; EC50 (Influenza A virus [13]): 26.3 µM"
Cc1ccc(S(=O)(=O)n2c(NS(C)(=O)=O)c(-c3ccccc3)c3cc(C)ccc32)cc1,inactive,Not_active,21.3,–
Cc1ccc(S(=O)(=O)n2c(NS(C)(=O)=O)c(-c3cccc(C)c3)c3ccccc32)cc1,inactive,Not_active,16.5,–
NC(=O)c1ncn([C@@H]2O[C@H](CO)[C@@H](O)[C@H]2O)n1 [RIBAVIRIN],–,–,513,Activity (Influenza A virus [4]): 3.8%; Activity (Influenza A virus [5]): 1.74%; EC50 (Influenza A virus [6]): 7.33 µM; Activity (Influenza A virus [7]): 1.62%; selectivity ratio ([8]; read-out: Selectivity Index): 70; EC50 (Influenza A virus [9]; mdck): 8.2 µM; Activity (Influenza A virus [10]): 92.8%; selectivity ratio [11]: 62.6; selectivity ratio [12]: 40; EC50 (Influenza A virus [13]): 12.8 µM
CS(=O)(=O)Nc1c(-c2ccccc2)c2ccccc2n1S(=O)(=O)c1ccccc1,inactive,Not_active,36.4,–
Cc1ccc(S(=O)(=O)n2c(NS(C)(=O)=O)c(-c3ccccc3)c3cc(Cl)ccc32)cc1,inactive,Not_active,12.8,–
Cc1ccc(S(=O)(=O)n2c(NS(=O)(=O)c3ccc(Cl)cc3)c(-c3ccccc3)c3ccccc32)cc1,inactive,Not_active,< 6.25,–
Cc1ccc(S(=O)(=O)n2c(NS(C)(=O)=O)c(-c3ccc(F)cc3)c3ccccc32)cc1,inactive,Not_active,41,–

Compound,Activity (Influenza A virus [1]),Virus inhibition rate at 0.625 uM (Influenza A virus [2]),CC50 at 72 h [3] [µM],other results
Cc1ccc(S(=O)(=O)n2c(NS(C)(=O)=O)c(-c3ccccc3)c3cc(Br)ccc32)cc1,inactive,Not_active,< 6.25,–
COc1ccc(S(=O)(=O)n2c(NS(C)(=O)=O)c(-c3ccccc3)c3ccccc32)cc1,inactive,Not_active,12.6,–
Cc1ccc(S(=O)(=O)n2c(NS(=O)(=O)c3ccc([N+](=O)[O-])cc3)c(-c3ccccc3)c3ccccc32)cc1,inactive,Not_active,< 6.25,–
Cc1ccc(S(=O)(=O)n2c(NS(C)(=O)=O)c(-c3ccccc3Cl)c3ccccc32)cc1,inactive,Not_active,20.9,–
CS(=O)(=O)Nc1c(-c2ccccc2)c2ccccc2n1S(=O)(=O)c1ccc(Cl)cc1,inactive,Not_active,14.6,–
Cc1ccc(S(=O)(=O)n2c(NS(C)(=O)=O)c(-c3ccccc3)c3ccc(C)cc32)cc1,inactive,Not_active,5.45,–
CS(=O)(=O)Nc1c(-c2ccccc2)c2ccccc2n1S(=O)(=O)c1ccc([N+](=O)[O-])cc1,inactive,Not_active,55.6,–
Cc1ccc(S(=O)(=O)n2c(NS(C)(=O)=O)c(-c3ccccc3)c3ccc(F)cc32)cc1,inactive,Not_active,22.8,–
COc1ccc2c(-c3ccccc3)c(NS(C)(=O)=O)n(S(=O)(=O)c3ccc(C)cc3)c2c1,inactive,Not_active,31.6,–
COc1ccc(S(=O)(=O)Nc2c(-c3ccccc3)c3ccccc3n2S(=O)(=O)c2ccc(C)cc2)cc1,inactive,Not_active,434,–
Cc1ccc(-c2c(NS(C)(=O)=O)n(S(=O)(=O)c3ccc(C)cc3)c3ccccc23)cc1,inactive,Not_active,14.1,–
Cc1ccc(S(=O)(=O)n2c(NS(C)(=O)=O)c(-c3cccc(Cl)c3)c3ccccc32)cc1,inactive,Not_active,67.1,–
Cc1ccc(S(=O)(=O)n2c(NS(C)(=O)=O)c(-c3cccc(Br)c3)c3ccccc32)cc1,inactive,Not_active,16.9,–
COc1ccc(-c2c(NS(C)(=O)=O)n(S(=O)(=O)c3ccc(C)cc3)c3ccccc23)cc1,–,–,43.6,EC50 (Influenza A virus [6]): 2 µM; selectivity ratio ([8]; read-out: Ratio CC50/EC50): 21.8
Cc1ccc(S(=O)(=O)n2c(NS(C)(=O)=O)c(-c3ccc(Br)cc3)c3ccccc32)cc1,inactive,Not_active,13.2,–
Cc1ccc(S(=O)(=O)n2c(NS(=O)(=O)c3ccccc3)c(-c3ccccc3)c3ccccc32)cc1,inactive,Not_active,109,–
CS(=O)(=O)Nc1c(-c2ccccc2)c2ccccc2n1S(C)(=O)=O,inactive,Not_active,341,–
